The values below come from patent US8129371B2, “Thienopyrimidine and pyrazolopyrimidine compounds and their use as mTOR kinase and PI3 kinase inhibitors” (Wyeth LLC, priority 2007, dated 2012).

Usually IC50 stands for the concentration needed to halve the response being measured.

Each structure is given as a SMILES string. Read-outs that look alike come from different tables or passages of the source. Where only a bound is given, the exact number is not on record here.

Test [1] addresses T1, Human mTOR (FLAG-TOR) (Homo sapiens, UniProt P42345).
T1 construct: FLAG
In words: Human mTOR kinase assay with purified enzyme, DELFIA format. Type of test: biochemical. In short, it runs like this:
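Purified FLAG-mTOR in HEPES pH 7.4 buffer with 10 mM MnCl2 was preincubated with inhibitor and reacted 2 h at room temperature with His6-S6K substrate, then stopped with EDTA/EGTA. Phospho-T389 S6K detected by DELFIA with Eu-labelled antibody (40 ng/mL) after plate capture; inhibition computed from signal.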

Test [2] concerns the target T2, PI3K (Homo sapiens, UniProt P42336).
T2 construct: PI3 Kinase α IC50; other: PI3 Kinase α; other: PI3 Kinase α isoform, fluorescence polarization
In words: Fluorescence polarization assay for PI3K. The test is classed as biochemical. The note with it: read-out: PI3 Kinase α IC50. The gist of the method: (§1)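 PI3K was preincubated with compound (final DMSO 1%), and the reaction was started with PIP2/ATP substrate and run 30–60 min. It was stopped with a detector mix giving 10 nM red probe and 70 nM GST-GRP.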
Background: Fluorescence polarisation rises when a labelled molecule tumbles more slowly, as on binding a larger partner.

Test [3] deals with T3, PI3K (Homo sapiens, UniProt P48736).
T3 construct: PI3 Kinase γ IC50; other: PI3 Kinase γ; other: PI3 Kinase γ isoform, fluorescence polarization
In words: Fluorescence polarization assay for PI3K. As to conditions: read-out: PI3 Kinase γ IC50. Type of test: biochemical. The gist of the method:
as §1

Test [4] has as its system prostate line LNCap. The test is described as follows: In vitro cell culture growth assay (MTS), LNCap. Type of test: cell-based. The note with it: Homo sapiens, LNCaP, 72 h, LNCap cells, three days after drug treatment. The gist of the method: (§2)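 Cells were plated and, one day later, treated with inhibitors. Three days after treatment, viable cell density was measured by MTS dye conversion, read as absorbance at 490 nm. Effects are expressed as percent of control growth versus vehicle-treated cells on the same plate.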

In test [5] the test system is breast line MDA468. In words: In vitro cell culture growth assay (MTS), MDA468. Type of test: cell-based. As to conditions: Homo sapiens, 72 h, MDA468 cells, three days after drug treatment. The gist of the method:
as §2

[6] abbreviates: purified human mTOR enzyme, DELFIA format.
Where [7] appears, read: PI3 Kinase α isoform, fluorescence polarization.
[8] abbreviates: PI3 Kinase γ isoform, fluorescence polarization.

T3 sequence (P48736 whole entry, canonical isoform): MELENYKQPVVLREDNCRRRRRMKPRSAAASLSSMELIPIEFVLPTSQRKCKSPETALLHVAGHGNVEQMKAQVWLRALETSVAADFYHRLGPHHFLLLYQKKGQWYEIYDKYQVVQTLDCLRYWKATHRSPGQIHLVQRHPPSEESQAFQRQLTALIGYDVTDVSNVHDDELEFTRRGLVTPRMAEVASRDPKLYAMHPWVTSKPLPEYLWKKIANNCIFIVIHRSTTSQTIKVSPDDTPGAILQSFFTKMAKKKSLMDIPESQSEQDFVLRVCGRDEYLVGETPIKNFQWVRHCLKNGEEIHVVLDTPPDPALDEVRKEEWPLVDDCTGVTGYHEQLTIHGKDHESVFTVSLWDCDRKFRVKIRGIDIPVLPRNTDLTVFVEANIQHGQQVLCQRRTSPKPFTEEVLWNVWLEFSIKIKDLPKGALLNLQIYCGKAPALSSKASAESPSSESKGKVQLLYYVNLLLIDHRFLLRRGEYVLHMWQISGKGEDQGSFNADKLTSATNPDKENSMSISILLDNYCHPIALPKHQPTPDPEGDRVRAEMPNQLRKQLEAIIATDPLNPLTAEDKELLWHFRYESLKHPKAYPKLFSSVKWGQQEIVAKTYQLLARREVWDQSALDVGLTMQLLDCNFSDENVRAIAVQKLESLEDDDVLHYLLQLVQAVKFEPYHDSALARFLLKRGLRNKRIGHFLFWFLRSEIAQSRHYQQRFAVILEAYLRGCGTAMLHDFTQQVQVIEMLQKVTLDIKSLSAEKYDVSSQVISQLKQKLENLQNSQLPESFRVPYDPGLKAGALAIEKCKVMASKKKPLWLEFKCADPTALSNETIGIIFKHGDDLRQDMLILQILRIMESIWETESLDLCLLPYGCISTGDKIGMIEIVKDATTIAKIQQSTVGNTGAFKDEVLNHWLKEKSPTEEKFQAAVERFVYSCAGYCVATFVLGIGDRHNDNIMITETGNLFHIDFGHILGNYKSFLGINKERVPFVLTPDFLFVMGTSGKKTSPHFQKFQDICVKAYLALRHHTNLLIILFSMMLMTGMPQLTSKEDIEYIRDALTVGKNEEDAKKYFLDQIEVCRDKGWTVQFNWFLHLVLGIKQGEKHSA
T2 sequence (P42336 whole entry, canonical isoform): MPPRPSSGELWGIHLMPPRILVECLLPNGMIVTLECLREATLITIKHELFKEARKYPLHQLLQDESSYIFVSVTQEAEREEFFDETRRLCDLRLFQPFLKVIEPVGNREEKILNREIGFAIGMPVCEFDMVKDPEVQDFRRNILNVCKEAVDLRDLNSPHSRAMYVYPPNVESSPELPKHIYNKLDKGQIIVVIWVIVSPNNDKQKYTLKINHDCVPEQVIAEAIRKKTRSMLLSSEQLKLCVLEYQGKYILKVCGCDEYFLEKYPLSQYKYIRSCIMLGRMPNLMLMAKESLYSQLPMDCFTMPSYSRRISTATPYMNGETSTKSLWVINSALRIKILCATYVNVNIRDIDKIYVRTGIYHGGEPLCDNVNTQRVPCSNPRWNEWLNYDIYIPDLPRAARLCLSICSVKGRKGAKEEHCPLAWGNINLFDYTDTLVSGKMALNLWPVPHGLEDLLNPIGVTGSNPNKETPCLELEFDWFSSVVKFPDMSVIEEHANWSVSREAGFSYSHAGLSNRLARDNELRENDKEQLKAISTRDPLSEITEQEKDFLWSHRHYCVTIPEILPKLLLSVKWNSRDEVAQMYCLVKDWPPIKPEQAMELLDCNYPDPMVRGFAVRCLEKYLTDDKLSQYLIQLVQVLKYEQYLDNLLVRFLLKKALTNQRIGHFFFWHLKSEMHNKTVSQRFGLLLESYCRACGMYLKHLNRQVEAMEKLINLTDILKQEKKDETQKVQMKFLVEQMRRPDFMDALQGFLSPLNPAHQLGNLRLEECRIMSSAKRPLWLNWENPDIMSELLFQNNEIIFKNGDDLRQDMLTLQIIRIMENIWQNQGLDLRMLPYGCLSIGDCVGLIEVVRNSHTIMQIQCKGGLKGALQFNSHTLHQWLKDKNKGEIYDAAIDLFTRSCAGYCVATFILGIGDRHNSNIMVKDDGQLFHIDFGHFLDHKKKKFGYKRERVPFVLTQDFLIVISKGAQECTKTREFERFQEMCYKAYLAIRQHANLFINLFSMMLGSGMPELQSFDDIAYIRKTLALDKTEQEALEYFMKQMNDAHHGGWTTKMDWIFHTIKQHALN

As for `CNC(=O)Nc1ccc(-c2nc(N3C4CCC3COC4)c3cnn(CC(F)(F)F)c3n2)cc1` [Example 267, 1-methyl-3-{4-[4-(3-oxa-8-azabicyclo[3.2.1]oct-8-yl)-1-(2,2,2-trifluoroethyl)-1H-pyrazolo[3,4-d]pyrimidin-6-yl]phenyl}urea], the IC50 in test [1] was 0.565 nM; in test [2] (PI3 Kinase α), 1370 nM; in test [3] (PI3 Kinase γ) it was 9000 nM; in test [4], 9 nM; in test [5], 40 nM.
With `CCn1nc(Br)c2c(N3CC4CCC(C3)O4)nc(-c3ccc(NC(=O)NC)cc3)nc21` [Example 397, 1-{4-[3-bromo-1-ethyl-4-(8-oxa-3-azabicyclo[3.2.1]oct-3-yl)-1H-pyrazolo[3,4-d]pyrimidin-6-yl]phenyl}-3-methylurea], the IC50 in test [1] (setting [6]) was 3.1 nM; in test [2] (setting [7]) it was 317 nM; in test [3] (setting [8]) it was 5630 nM; in test [4], 210 nM; in test [5], 1500 nM.
The matching figures for `CN1CCN(Cc2cc3nc(-c4ccc(NC(=O)NC5CC5)cc4)nc(N4CC5CCC(C4)O5)c3s2)CC1` [Example 424, 1-cyclopropyl-3-(4-{6-[(4-methylpiperazin-1-yl)methyl]-4-(8-oxa-3-azabicyclo[3.2.1]oct-3-yl)thieno[3,2-d]pyrimidin-2-yl}phenyl)urea]: 15.5 nM, 874 nM, 3670 nM, 400 nM and 2000 nM.
For `COCC(COC)n1ncc2c(N3CC4CCC(C3)O4)nc(-c3ccc(NC(=O)NCCO)cc3)nc21` [Example 322, 1-(2-hydroxyethyl)-3-(4-{1-[2-methoxy-1-(methoxymethyl)ethyl]-4-(8-oxa-3-azabicyclo[3.2.1]oct-3-yl)-1H-pyrazolo[3,4-d]pyrimidin-6-yl}phenyl)urea], the IC50 is 6.45 nM in test [1] (setting [6]); 1250 nM in test [2] (setting [7]); above 10000 nM in test [3] (setting [8]); 1000 nM in test [4]; 2800 nM in test [5].
The matching figures for `O=C(Nc1ccncc1)Nc1ccc(-c2nc(N3CC4CCC(C3)O4)c3cnn(C4CCC5(CCCO5)CC4)c3n2)cc1` (single isomer, unassigned) [Example 312, 1-(4-{4-(8-oxa-3-azabicyclo[3.2.1]oct-3-yl)-1-[(5r,8r)-1-oxaspiro[4.5]dec-8-yl]-1H-pyrazolo[3,4-d]pyrimidin-6-yl}phenyl)-3-pyridin-4-ylurea]: 0.203 nM, 353 nM, 2220 nM, 1 nM and 12 nM.
On to `CN(C)CCOc1ccc(NC(=O)Nc2ccc(-c3nc(N4CC5CCC(C4)O5)c4cnn(CCC#N)c4n3)cc2)cc1` [Example 224, 1-{4-[1-(2-cyanoethyl)-4-(8-oxa-3-azabicyclo[3.2.1]oct-3-yl)-1H-pyrazolo[3,4-d]pyrimidin-6-yl]phenyl}-3-{4-[2-(dimethylamino)ethoxy]phenyl}urea], for which the IC50 was 0.745 nM in test [1]; 155 nM in test [2] (PI3 Kinase α); 2600 nM in test [3] (PI3 Kinase γ); 3 nM in test [4]; 12 nM in test [5].
As for `Nc1ccc(-c2nc(N3CC4CCC(C3)O4)c3cnn(C4CCC5(CC4)OCCO5)c3n2)cc1` [Example 81, 4-[1-(1,4-dioxaspiro[4.5]dec-8-yl)-4-(8-oxa-3-azabicyclo[3.2.1]oct-3-yl)-1H-pyrazolo[3,4-d]pyrimidin-6-yl]aniline], the IC50 is 54 nM in test [1]; above 10000 nM in test [2] (PI3 Kinase α); above 10000 nM in test [3] (PI3 Kinase γ); 1050 nM in test [4]; 5800 nM in test [5].
For `O=C(Nc1ccncc1)Nc1ccc(-c2nc(N3CC4CCC(C3)O4)c3sccc3n2)cc1` [Example 413, 1-{4-[4-(8-oxa-3-azabicyclo[3.2.1]oct-3-yl)thieno[3,2-d]pyrimidin-2-yl]phenyl}-3-pyridin-4-ylurea], the IC50 in test [1] (setting [6]) was determined as 0.39 nM; in test [2] (setting [7]), 80 nM; in test [3] (setting [8]) it was 1380 nM; in test [4] it was 10 nM; in test [5], 48 nM.
